Tests used:
Cathepsin L2 [1] = biological target: T1, Cathepsin L2 (Homo sapiens, UniProt O60911); assay: Inhibition of human recombinant cathepsin V expressed in Pichia pastoris by Lineweaver-Burk double-reciprocal plots
T1 sequence (O60911 whole entry): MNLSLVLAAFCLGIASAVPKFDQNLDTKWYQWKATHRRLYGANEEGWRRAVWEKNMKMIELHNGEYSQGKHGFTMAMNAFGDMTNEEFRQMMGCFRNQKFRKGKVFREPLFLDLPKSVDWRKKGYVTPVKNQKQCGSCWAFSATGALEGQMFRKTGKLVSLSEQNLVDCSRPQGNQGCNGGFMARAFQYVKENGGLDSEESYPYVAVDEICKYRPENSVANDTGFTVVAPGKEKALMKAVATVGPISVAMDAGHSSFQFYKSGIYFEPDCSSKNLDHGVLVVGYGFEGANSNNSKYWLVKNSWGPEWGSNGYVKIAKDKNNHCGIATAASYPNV

Cathepsin L2 [2] = biological target: T1, Cathepsin L2; assay: Inhibition of human recombinant cathepsin V expressed in Pichia pastoris

Ki (Cathepsin L2 [1]) [nM] | IC50 (Cathepsin L2 [2]) [nM] | Compound
500 | 2500 | COc1c(O)c(CC=C(C)C)c(O)c2c(=O)c3c(CC=C(C)C)ccc(O)c3n(C)c12
4400 | 5200 | COc1c2c(c(O)c3c(=O)c4cccc(O)c4n(C)c13)CC(C(C)(C)O)O2 (stereo not given)
1700 | 2800 | COc1c(O)c2c(c3c(=O)c4cccc(O)c4n(C)c13)OC(C)(C)C(O)C2 (stereo not given)
 | 48000 | Cn1c2c(O)cccc2c(=O)c2c(O)cc3c(c21)C=CC(C)(C)O3
1200 | 3900 | CC(C)=CCc1c(O)cc2c(c1O)c(=O)c1c(CC=C(C)C)ccc(O)c1n2C
200 | 1200 | COc1c(OC)c(OC)c2c(c1O)c(=O)c1cccc(O)c1n2C [CITIBRASINE]
4200 | 10000 | COc1c(O)cc(O)c2c(=O)c3cccc(O)c3n(C)c12 [CITRUSININE-II]
1000 | 2200 | COc1cc(O)c2c(=O)c3cccc(O)c3n(C)c2c1OC [CITRUSININE-I]
1100 | 2200 | COc1c(O)c(CC=C(C)C)c(O)c2c(=O)c3cccc(O)c3n(C)c12 [GLYCOCITRINE-IV]
10000 | 25000 | CC(C)=CCc1c(O)cc(O)c2c(=O)c3cccc(O)c3n(C)c12 [GLYCOCITRINE-I]
 | 44000 | COc1c2c(c(O)c3c(=O)c4cccc(O)c4n(C)c13)C=CC(C)(C)O2 [PYRANOFOLINE]

Reference: ChEMBL document CHEMBL1667860, “Acridone alkaloids as potent inhibitors of cathepsin V” (Bioorg Med Chem, 2011)
